Measurements reported in patent US20050032841A1, “Therapeutic compositions and methods of treating glycolipid storage related disorders” (priority 1999, published 2005).
Values joined by “and” are separate entries in the source; they are usually repeats but may differ in a detail not shown here. Identical values can stand only once.

What was measured:
α-glucosidase I and II = conditions: cited from earlier work
GSL synthesis = conditions: compared with NB-DNJ; cited from earlier work
[1] = system: in vitro model of Gaucher disease; conditions: cited from earlier work
[2] = system: mouse model of Tay-Sachs disease; conditions: asymptomatic Tay-Sachs mouse model; cited from earlier work
Sandhoff mice = test: Survival of Sandhoff mice treated with NB-DNJ and/or bone marrow transplantation; type: in vivo; conditions: BMT at two weeks of age, NB-DNJ 600 mg/kg/day from 9.5-11 weeks of age
MPS IIIA mice = test: Murine model of MPS IIIA: brain immunocytochemistry (GM2, GM3) and auto-fluorescent material; type: in vivo
From the text: Colonies of mutant mice expressing the MPS IIIA phenotype have been described, and have been validated by a number of criteria as an authentic model of the disease (Stanley, P et al (1999) Glycobiology 9: 1389-1396). MPS IIIA mice display clinical signs of the disease around 6 months of age with decreased activity, scruffy coat, abdominal distention, hunched posture and waddling gait. […] Death results by 18 months or less.
The brains of MPS mice are grossly normal. […] White matter and Purkinje cells display axonal spheroids. Anti-heparan sulfate immunostaining indicates accumulation of heparan sulfate fragments in the cerebral cortex of MPS IIIA animals.
MPS IIIA mice were treated with 1200 mg/kg/day, beginning at 4 weeks of age, with NB-DNJ. Brain samples from animals were taken at 8 weeks of age (4 weeks of treatment with NB-DNJ) and subjected to immunocytochemistry with an anti-GM2 ganglioside-specific monoclonal antibody. […] Upper cortex, ii. Lower cortex; B: NB-DNJ Treated, i. Upper cortex, ii. Lower cortex.
The hippocampus (CA4-Dentate Gyrus) of the MPS IIIA animals was also examined for staining by a GM2 Ganglioside-specific monoclonal antibody.
Cerebral cortex samples from animals were also taken at 40 weeks of age (36 weeks of treatment with NB-DNJ) and subjected to immunocytochemistry with an anti-GM3 ganglioside-specific monoclonal antibody. Anti-GM2 staining was similar to anti-GM3 staining in both treated and untreated animals, respectively (data not shown).
The brains of animals affected by MPS IIIA, as well as some other of the mucopolysaccharidoses, store heterogeneous auto-fluorescent material in addition to glycolipids. Thus, the cerebral cortex of MPS IIIA animals either left untreated or treated for 36 weeks with NB-DNJ were also examined for the presence of auto-fluorescent material.

[3] = Serum enzyme activity and half life of Ceredase after i.v. injection in mice, with or without NB-DNJ pre-treatment; type: in vivo; parameters: unit not given here; conditions: mice treated with NB-DNJ 4800 mg/kg/day for 5 weeks
Protocol: A group of mice were treated with NB-DNJ at 4800 mg/kg/day for 5 weeks. After a low intravenous dose (5-10 U/kg) of Ceredase™ (Genzyme Corporation) administered as a single injection via the tail vein, serum enzyme activity was measured by taking sequential serum samples from the tail vein to monitor enzyme activity over time. Ceredase™ is a modified form of β glucocerebrosidase.

| Structure (SMILES) | Inhibition of α-glucosidase I and II (α-glucosidase I and II) | Inhibition of GSL synthesis in vitro (GSL synthesis) | Storage in in vitro model of Gaucher disease [1] | GM2 accumulation in the brain and associated neuropathology [2] | Survival (longest survivor) (Sandhoff mice) [days] | Pathological features in the model of MPS IIIA (MPS IIIA mice; NB-DNJ 1200 mg/kg/day) | Glycolipid storage in neuronal cells (MPS IIIA mice; NB-DNJ 1200 mg/kg/day from 4 weeks of age, anti-GM2/GM3 immunocytochemistry) | Storage of auto-fluorescent material in cerebral cortex (MPS IIIA mice; NB-DNJ 1200 mg/kg/day, 36 weeks of treatment) | Peak Activity of Ceredase in serum, mean ± sem ([3]; Ceredase 5-10 U/kg i.v., group mean) | Peak Activity of Ceredase in serum ([3]; Ceredase 5-10 U/kg single i.v. injection, individual mice) |
| --- | --- | --- | --- | --- | --- | --- | --- | --- | --- | --- |
| CCCCN1C[C@H](O)[C@@H](O)[C@@H](O)[C@H]1CO [NB-DGJ, N-butyldeoxygalactonojirimycin] | does not inhibit | as effectively as NB-DNJ | – | – | – | – | – | – | – | – |
| CCCCN1C[C@H](O)[C@@H](O)[C@H](O)[C@H]1CO [NB-DNJ, N-butyldeoxynojirimycin] | – | – | shown to prevent storage | reduce GM2 accumulation in the brain and prevent the neuropathology | 170 | markedly reduces the pathological features | markedly reduced | reduced the storage of auto-fluorescent material | 27.4 ± 7.2 | 13.9 and 32.1 and 24.1 and 13.1 and 21.0 and 68.3 and 19.2 |
